Literature values as cited in patent publication US6423864B1, “Purification of N-[N-(3,3-dimethylbutyl)-L-α-aspartyl]-L-phenylalanine 1-methyl ester via crystallization” (The NutraSweet Company, priority 1998, dated 2002).

Settings: relative to sucrose; background statement

Q: Which “sweetness potency (sweeter than sucrose)” value does the source give for COC(=O)[C@H](Cc1ccccc1)NC(=O)[C@H](CC(=O)O)NCCC(C)(C)C [neotame, N-[N-(3,3-dimethylbutyl)-L-α-aspartyl]-L-phenylalanine 1-methyl ester] here?
A: about 8000 ×
